Reference: patent US20240343692A1 (priority 2021, published 2024)
pEC50, pKi: −log10 of the molar value.

Legend:
5-HT1A = target: T1, 5-HT1A (Homo sapiens, UniProt P08908); assay: Radioligand binding at 5-HT1A(h) (agonist radioligand), Eurofins Cerep Panlabs; details: human receptor, duplicate, read-out: Percent Inhibition of the Binding of a Specific Radioligand, 5-HT1A; for inhibition at 0.1 µM: % inh. at 100 nM; for inhibition at 1 µM: % inh. at 1.0 μM
T1 sequence (P08908 1-422): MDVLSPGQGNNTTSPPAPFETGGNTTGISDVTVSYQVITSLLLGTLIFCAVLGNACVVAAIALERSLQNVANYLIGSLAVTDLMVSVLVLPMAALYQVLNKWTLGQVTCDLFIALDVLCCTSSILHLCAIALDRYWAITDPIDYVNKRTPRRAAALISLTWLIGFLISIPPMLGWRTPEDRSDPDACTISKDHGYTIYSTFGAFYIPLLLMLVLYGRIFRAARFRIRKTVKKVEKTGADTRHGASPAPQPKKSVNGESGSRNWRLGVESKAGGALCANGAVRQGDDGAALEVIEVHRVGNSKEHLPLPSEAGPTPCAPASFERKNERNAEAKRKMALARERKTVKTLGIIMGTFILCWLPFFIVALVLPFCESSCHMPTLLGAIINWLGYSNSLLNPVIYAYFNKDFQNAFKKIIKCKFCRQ
Description: FIG. 1. Histogram for 5-HT1A(h) (agonist radioligand).

5-HT2A = 5-HT2A (Homo sapiens, UniProt P28223); assay: Radioligand binding at 5-HT2A(h) (agonist radioligand), Eurofins Cerep Panlabs; details: human receptor, duplicate, read-out: Percent Inhibition of the Binding of a Specific Radioligand, 5-HT2A; for inhibition at 0.1 µM: % inh. at 100 nM; for inhibition at 1 µM: % inh. at 1.0 μM
Chain of 5-HT2A (P28223 whole entry, looked up): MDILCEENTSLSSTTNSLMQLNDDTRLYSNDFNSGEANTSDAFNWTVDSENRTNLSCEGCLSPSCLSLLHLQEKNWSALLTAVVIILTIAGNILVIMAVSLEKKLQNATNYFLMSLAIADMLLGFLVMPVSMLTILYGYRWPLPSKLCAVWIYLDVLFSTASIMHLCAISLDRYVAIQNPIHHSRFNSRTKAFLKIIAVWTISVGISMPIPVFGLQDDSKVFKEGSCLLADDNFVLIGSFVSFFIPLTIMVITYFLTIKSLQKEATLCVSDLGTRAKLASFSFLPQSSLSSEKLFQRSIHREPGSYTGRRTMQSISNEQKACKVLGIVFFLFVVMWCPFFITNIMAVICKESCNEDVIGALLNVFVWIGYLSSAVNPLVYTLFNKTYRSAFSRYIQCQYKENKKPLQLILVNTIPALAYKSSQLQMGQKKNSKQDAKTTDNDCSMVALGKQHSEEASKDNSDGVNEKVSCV
Description: FIG. 2. Histogram for 5-HT2A(h) (agonist radioligand).

5-HT2B = 5-HT2B (Homo sapiens, UniProt P41595); assay: Radioligand binding at 5-HT2B(h) (agonist radioligand), Eurofins Cerep Panlabs; details: human receptor, duplicate, read-out: Percent Inhibition of the Binding of a Specific Radioligand, 5-HT2B; for inhibition at 0.1 µM: % inh. at 100 nM; for inhibition at 1 µM: % inh. at 1.0 μM
Chain of 5-HT2B (P41595 whole entry): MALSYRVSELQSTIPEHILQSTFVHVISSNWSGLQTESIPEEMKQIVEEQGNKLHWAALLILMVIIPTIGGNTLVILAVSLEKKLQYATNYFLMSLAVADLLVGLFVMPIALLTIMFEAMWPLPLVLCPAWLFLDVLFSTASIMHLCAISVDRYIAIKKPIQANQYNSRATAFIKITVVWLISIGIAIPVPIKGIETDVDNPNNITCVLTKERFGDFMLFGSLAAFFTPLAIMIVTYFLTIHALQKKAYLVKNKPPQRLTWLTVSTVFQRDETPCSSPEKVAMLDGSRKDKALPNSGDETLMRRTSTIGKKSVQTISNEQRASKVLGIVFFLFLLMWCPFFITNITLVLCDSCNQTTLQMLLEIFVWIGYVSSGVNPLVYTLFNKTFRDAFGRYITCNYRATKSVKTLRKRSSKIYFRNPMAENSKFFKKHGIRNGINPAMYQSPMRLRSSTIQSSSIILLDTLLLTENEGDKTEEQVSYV
Description: FIG. 3. Histogram for 5-HT2B(h) (agonist radioligand).

5-HT2C = target: T2, 5-HT2C (Homo sapiens, UniProt P28335); assay: Radioligand binding at 5-HT2C(h) (agonist radioligand), Eurofins Cerep Panlabs; details: human receptor, duplicate, read-out: Percent Inhibition of the Binding of a Specific Radioligand, 5-HT2C; for inhibition at 0.1 µM: % inh. at 100 nM; for inhibition at 1 µM: % inh. at 1.0 μM
T2 sequence (P28335 33-458): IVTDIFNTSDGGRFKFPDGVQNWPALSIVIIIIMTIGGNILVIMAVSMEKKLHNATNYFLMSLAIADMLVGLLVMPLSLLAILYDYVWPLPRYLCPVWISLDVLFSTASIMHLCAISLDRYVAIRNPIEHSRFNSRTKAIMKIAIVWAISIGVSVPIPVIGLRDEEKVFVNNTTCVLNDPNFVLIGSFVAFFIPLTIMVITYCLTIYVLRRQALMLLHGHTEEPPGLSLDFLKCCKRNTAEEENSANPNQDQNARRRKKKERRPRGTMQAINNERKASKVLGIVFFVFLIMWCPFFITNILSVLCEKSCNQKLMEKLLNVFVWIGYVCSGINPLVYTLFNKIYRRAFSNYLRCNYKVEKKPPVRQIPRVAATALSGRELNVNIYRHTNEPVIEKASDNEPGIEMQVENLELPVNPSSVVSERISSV
Description: FIG. 4. Histogram for 5-HT2C(h) (agonist radioligand).

Adrenergic α1 = assay: CNS receptor radioligand binding, Adrenergic α1; details: 10 μM; rat receptor data
Dopamine D1 = Dopamine D1 (Homo sapiens, UniProt P21728); assay: CNS receptor radioligand binding, Dopamine D1; details: 10 μM
Chain of Dopamine D1 (P21728 whole entry): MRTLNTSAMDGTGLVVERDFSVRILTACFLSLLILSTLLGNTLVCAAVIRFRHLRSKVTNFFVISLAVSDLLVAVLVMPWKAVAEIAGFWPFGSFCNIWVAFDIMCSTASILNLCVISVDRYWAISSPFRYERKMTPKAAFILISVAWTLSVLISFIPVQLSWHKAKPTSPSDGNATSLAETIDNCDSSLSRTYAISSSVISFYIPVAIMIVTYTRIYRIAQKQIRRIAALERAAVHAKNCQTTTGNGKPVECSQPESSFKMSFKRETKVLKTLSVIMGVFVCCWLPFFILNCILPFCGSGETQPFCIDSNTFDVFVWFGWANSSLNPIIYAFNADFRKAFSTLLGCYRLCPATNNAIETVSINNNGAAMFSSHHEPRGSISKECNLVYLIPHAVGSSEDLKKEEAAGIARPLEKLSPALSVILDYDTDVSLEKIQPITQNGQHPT

Dopamine D2L = Dopamine D2L (Homo sapiens, UniProt P14416); assay: CNS receptor radioligand binding, Dopamine D2L; details: 10 μM
Chain of Dopamine D2L (P14416 whole entry): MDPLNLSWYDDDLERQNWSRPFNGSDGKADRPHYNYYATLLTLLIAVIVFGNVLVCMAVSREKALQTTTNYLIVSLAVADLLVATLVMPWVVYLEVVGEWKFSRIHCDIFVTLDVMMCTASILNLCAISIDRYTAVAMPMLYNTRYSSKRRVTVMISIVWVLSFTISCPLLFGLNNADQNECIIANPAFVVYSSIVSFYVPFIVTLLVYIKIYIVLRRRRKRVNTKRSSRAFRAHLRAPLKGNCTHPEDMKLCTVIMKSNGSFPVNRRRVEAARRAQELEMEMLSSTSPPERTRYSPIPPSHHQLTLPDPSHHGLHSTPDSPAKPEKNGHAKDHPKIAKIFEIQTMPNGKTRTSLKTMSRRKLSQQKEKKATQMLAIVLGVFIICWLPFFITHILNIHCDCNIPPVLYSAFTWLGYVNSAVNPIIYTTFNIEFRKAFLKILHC

Dopamine D3 = Dopamine D3 (Homo sapiens, UniProt P35462); assay: CNS receptor radioligand binding, Dopamine D3
Chain of Dopamine D3 (P35462 whole entry): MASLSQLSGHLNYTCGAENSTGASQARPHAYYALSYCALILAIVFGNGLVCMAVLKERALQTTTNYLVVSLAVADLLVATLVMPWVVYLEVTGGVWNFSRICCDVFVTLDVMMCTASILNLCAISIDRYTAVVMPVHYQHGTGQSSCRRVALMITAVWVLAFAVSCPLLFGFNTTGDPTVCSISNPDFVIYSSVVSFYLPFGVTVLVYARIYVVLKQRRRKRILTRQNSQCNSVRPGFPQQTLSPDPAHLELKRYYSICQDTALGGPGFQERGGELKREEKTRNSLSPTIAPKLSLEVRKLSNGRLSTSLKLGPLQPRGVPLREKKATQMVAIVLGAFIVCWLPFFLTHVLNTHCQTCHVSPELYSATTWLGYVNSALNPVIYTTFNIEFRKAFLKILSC

GABAA = assay: CNS receptor radioligand binding, GABAA; details: 10 μM; rat receptor data
Histamine H1 = Histamine H1 (Homo sapiens, UniProt P35367); assay: CNS receptor radioligand binding, Histamine H1 (human); details: 10 μM
Chain of Histamine H1 (P35367 whole entry): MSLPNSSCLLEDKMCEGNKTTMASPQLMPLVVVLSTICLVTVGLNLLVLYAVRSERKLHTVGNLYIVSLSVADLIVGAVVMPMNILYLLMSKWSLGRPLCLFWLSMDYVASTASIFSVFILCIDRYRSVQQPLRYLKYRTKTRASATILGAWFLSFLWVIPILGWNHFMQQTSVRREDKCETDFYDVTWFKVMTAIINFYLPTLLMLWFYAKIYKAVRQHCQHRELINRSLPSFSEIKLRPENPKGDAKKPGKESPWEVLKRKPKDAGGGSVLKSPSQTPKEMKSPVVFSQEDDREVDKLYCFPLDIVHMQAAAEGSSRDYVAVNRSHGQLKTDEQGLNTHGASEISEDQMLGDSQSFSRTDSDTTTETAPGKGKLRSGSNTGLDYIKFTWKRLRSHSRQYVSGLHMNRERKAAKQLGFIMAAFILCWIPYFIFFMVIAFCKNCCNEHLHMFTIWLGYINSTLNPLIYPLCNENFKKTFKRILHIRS

Muscarinic M2 = target: T3, Muscarinic M2 (Homo sapiens, UniProt P08172); assay: CNS receptor radioligand binding, Muscarinic M2; details: 10 μM
T3 sequence (P08172 1-466): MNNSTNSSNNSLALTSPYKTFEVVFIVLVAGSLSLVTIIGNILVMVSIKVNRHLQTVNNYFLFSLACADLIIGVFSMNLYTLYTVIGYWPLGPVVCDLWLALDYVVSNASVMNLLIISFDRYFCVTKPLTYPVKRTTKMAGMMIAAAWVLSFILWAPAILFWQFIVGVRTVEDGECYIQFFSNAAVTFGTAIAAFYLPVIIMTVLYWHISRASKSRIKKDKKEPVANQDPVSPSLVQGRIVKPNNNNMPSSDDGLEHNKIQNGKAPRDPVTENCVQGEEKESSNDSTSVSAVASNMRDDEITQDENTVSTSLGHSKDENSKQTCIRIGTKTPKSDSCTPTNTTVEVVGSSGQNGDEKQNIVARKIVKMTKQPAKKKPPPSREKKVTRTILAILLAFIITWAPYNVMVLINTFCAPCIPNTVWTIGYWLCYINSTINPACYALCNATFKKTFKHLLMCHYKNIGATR

Muscarinic M5 = target: T4, Muscarinic M5 (Homo sapiens, UniProt P08912); assay: CNS receptor radioligand binding, Muscarinic M5; details: 10 μM
T4 sequence (P08912 1-532): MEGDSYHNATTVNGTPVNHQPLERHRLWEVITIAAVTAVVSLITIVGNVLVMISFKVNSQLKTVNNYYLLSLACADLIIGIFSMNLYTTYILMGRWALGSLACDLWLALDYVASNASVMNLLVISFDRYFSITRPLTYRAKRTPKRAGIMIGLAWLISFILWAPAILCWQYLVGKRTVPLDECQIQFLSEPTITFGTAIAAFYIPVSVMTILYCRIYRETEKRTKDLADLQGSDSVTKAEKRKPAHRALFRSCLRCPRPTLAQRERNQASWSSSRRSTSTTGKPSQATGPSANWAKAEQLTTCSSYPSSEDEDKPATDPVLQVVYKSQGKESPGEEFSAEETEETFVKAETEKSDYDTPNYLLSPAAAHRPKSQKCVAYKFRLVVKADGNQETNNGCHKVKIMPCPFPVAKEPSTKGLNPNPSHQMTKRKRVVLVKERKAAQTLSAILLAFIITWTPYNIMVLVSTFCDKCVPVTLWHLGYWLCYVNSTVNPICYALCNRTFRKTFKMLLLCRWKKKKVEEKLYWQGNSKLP

[1] = target: Nicotinic Acetylcholine α4β2 (Homo sapiens, UniProt P17787+P43681); assay: CNS receptor radioligand binding, Nicotinic Acetylcholine α4β2; details: 10 μM
Chain of Nicotinic Acetylcholine α4β2 (P43681 29-627 limits assumed): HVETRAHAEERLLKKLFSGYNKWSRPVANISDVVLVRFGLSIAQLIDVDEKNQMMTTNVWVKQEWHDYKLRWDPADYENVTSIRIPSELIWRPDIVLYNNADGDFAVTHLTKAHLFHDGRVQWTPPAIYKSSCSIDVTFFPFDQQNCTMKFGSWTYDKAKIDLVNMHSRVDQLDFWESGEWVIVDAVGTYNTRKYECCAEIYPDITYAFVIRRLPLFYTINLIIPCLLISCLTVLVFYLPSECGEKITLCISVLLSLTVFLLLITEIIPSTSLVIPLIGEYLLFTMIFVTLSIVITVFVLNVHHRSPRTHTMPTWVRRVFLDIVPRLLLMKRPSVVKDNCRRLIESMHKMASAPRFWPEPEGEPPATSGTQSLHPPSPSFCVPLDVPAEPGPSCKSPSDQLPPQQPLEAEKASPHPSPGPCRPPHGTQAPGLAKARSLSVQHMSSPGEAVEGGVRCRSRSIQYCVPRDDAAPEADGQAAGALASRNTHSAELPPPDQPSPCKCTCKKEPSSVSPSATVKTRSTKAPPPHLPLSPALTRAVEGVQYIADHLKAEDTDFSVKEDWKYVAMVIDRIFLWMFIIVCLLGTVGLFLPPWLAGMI
Chain of Nicotinic Acetylcholine α4β2 (P17787 26-502): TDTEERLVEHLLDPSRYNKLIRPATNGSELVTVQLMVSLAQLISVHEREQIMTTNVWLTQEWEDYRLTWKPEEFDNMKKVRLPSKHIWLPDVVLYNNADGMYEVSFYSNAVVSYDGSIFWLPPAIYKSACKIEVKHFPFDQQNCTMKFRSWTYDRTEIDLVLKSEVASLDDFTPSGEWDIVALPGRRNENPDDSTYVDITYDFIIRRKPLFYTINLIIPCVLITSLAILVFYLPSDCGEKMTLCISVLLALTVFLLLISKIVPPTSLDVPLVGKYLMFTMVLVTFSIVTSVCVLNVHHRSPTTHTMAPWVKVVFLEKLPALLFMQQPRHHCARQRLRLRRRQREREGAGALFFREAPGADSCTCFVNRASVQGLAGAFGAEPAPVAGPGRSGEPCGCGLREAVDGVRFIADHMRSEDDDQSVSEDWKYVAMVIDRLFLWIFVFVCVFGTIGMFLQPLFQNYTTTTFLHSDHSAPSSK

Opiate κ = Opiate κ (Homo sapiens, UniProt P41145); assay: CNS receptor radioligand binding, Opiate κ; details: 10 μM
Chain of Opiate κ (P41145 whole entry): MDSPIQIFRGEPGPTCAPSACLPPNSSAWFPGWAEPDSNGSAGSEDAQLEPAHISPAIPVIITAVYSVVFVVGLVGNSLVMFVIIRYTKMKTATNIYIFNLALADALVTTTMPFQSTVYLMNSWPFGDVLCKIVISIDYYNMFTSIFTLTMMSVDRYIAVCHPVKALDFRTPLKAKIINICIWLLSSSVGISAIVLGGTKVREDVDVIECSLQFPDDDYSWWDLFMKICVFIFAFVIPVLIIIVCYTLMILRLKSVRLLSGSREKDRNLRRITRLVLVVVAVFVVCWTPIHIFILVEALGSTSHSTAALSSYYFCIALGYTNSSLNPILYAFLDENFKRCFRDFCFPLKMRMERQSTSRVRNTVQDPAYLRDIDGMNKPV

Orexin OX1 = target: T5, Orexin OX1 (Homo sapiens, UniProt O43613); assay: CNS receptor radioligand binding, Orexin OX1; details: 10 μM
T5 sequence (O43613 1-425): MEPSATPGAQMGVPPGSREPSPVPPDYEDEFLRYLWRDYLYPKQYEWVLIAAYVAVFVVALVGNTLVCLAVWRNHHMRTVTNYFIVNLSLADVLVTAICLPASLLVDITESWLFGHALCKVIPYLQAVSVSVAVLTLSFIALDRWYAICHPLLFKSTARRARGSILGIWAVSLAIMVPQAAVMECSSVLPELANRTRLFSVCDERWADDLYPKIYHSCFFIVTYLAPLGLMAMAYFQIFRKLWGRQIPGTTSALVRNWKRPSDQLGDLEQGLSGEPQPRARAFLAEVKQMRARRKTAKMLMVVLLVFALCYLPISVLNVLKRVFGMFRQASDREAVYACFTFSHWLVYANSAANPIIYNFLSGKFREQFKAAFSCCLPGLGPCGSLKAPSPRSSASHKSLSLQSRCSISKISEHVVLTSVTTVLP

Serotonin 5-HT1A [2] = target: T6, Serotonin 5-HT1A (Homo sapiens, UniProt P08908); assay: CNS receptor radioligand binding, Serotonin 5-HT1A
T6 sequence (P08908 1-422): T1 sequence (P08908 1-422)

Serotonin 5-HT2A [3] = target: T7, Serotonin 5-HT2A (Homo sapiens, UniProt P28223); assay: CNS receptor radioligand binding, Serotonin 5-HT2A
T7 sequence (P28223 whole entry, looked up): as the sequence (P28223 whole entry, looked up) above

Serotonin 5-HT1A [4] = target: T6, Serotonin 5-HT1A; assay: Receptor activation potency, Serotonin 5-HT1A; assay type: biochemical; details: 5-point concentration response curves, duplicate
Serotonin 5-HT2A [5] = target: T7, Serotonin 5-HT2A; assay: Receptor activation potency, Serotonin 5-HT2A; assay type: biochemical; details: 5-point concentration response curves, duplicate
Serotonin 5-HT2B = Serotonin 5-HT2B (Homo sapiens, UniProt P41595); assay: Receptor activation potency, Serotonin 5-HT2B; assay type: biochemical; details: 5-point concentration response curves, duplicate
Chain of Serotonin 5-HT2B (P41595 whole entry): as the sequence (P41595 whole entry) above

Serotonin 5-HT2C = target: T8, Serotonin 5-HT2C (Homo sapiens, UniProt P28335); assay: Receptor activation potency, Serotonin 5-HT2C; assay type: biochemical; details: 5-point concentration response curves, duplicate
T8 sequence (P28335 33-458): T2 sequence (P28335 33-458)

Sigma-1 = Sigma-1 (Homo sapiens, UniProt Q99720); assay: Inhibition constant, Sigma-1; assay type: binding; details: human receptor; 5-point concentration response curves; duplicate; read-out: inhibition constants Ki, Sigma-1
Chain of Sigma-1 (Q99720 whole entry): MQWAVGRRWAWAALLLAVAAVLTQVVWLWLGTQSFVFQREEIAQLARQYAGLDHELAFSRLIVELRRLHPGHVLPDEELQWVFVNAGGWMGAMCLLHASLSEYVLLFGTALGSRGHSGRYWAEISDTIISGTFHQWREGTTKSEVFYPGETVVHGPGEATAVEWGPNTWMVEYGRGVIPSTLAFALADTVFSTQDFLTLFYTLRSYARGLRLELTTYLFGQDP

| Compound | inhibition at 0.1 µM (5-HT1A) | inhibition at 1 µM (5-HT1A) | inhibition at 0.1 µM (5-HT2A) | inhibition at 1 µM (5-HT2A) | inhibition at 0.1 µM (5-HT2B) | inhibition at 1 µM (5-HT2B) | inhibition at 0.1 µM (5-HT2C) | inhibition at 1 µM (5-HT2C) | Percent Inhibition of Specific Binding of a Radioligand Standard, Adrenergic α1 (Adrenergic α1) | Percent Inhibition of Specific Binding of a Radioligand Standard, Dopamine D1 (Dopamine D1) | Percent Inhibition of Specific Binding of a Radioligand Standard, Dopamine D2L (Dopamine D2L) | Percent Inhibition of Specific Binding of a Radioligand Standard, Dopamine D3 (Dopamine D3; 1 μM) | Percent Inhibition of Specific Binding of a Radioligand Standard, Dopamine D3 (Dopamine D3; 10 μM) | Percent Inhibition of Specific Binding of a Radioligand Standard, GABAA (GABAA) | Percent Inhibition of Specific Binding of a Radioligand Standard, Histamine H1 (Histamine H1) | Percent Inhibition of Specific Binding of a Radioligand Standard, Muscarinic M2 (Muscarinic M2) | Percent Inhibition of Specific Binding of a Radioligand Standard, Muscarinic M5 (Muscarinic M5) | Percent Inhibition of Specific Binding of a Radioligand Standard, Nicotinic Acetylcholine α4β2 [1] | Percent Inhibition of Specific Binding of a Radioligand Standard, Opiate κ (Opiate κ) | Percent Inhibition of Specific Binding of a Radioligand Standard, Orexin OX1 (Orexin OX1) | other results |
| --- | --- | --- | --- | --- | --- | --- | --- | --- | --- | --- | --- | --- | --- | --- | --- | --- | --- | --- | --- | --- | --- |
| CN1C[C@H](CO)C=C2c3cccc4[nH]cc(c34)C[C@H]21 [(+)-1, (+)-lysergol] | 94% | 99% | 96% | 97% | 96% | 99% | 97% | 99% |  |  |  |  |  |  |  |  |  |  |  |  |  |
| CN1C[C@@H](CO)C=C2c3cccc4[nH]cc(c34)C[C@H]21 [(+)-2, (+)-isolysergol] | 96% | 99% | 92% | 99% | 90% | 93% | 91% | 97% |  |  |  |  |  |  |  |  |  |  |  |  |  |
| CN1C[C@@H](CO)C=C2c3cccc4[nH]cc(c34)C[C@@H]21 [(−)-1, (−)-lysergol] | 27% | 67% | 12% | 62% | 34% | 87% | 41% | 86% |  |  |  |  |  |  |  |  |  |  |  |  |  |
| CN1C[C@H](CO)C=C2c3cccc4[nH]cc(c34)C[C@@H]21 [(−)-2, (−)-isolysergol] | 9% | 19% | 0% | 20% | 3% | 16% | 5% | 44% |  |  |  |  |  |  |  |  |  |  |  |  |  |
| (+)-Cycloclavine |  |  |  |  |  |  |  |  | 57 % inh | 91 % inh | 81 % inh | 75 % inh | 93 % inh | 9 % inh | 17 % inh | 0 % inh | 11 % inh | 9 % inh | 73 % inh | 23 % inh | Percent Inhibition of Specific Binding of a Radioligand Standard, Serotonin 5-HT1A (Serotonin 5-HT1A [2]; 1 μM): 97 % inh; Percent Inhibition of Specific Binding of a Radioligand Standard, Serotonin 5-HT1A (Serotonin 5-HT1A [2]; 10 μM): 97 % inh; Percent Inhibition of Specific Binding of a Radioligand Standard, Serotonin 5-HT2A (Serotonin 5-HT2A [3]; 1 μM): 100 % inh; Percent Inhibition of Specific Binding of a Radioligand Standard, Serotonin 5-HT2A (Serotonin 5-HT2A [3]; 10 μM): 100 % inh; pEC50 (Serotonin 5-HT1A [4]): 6.85; pEC50 (Serotonin 5-HT2A [5]): ~5.00; pEC50 (Serotonin 5-HT2B): < 4.70; pEC50 (Serotonin 5-HT2C): 7.80; pKi (Sigma-1): ~4.30 |
| (−)-Cycloclavine |  |  |  |  |  |  |  |  | 59 % inh | 30 % inh | 14 % inh | 32 % inh | 64 % inh | 0 % inh | 27 % inh | 0 % inh | 15 % inh | 11 % inh | 75 % inh | 6 % inh | Percent Inhibition of Specific Binding of a Radioligand Standard, Serotonin 5-HT1A (Serotonin 5-HT1A [2]; 1 μM): 73 % inh; Percent Inhibition of Specific Binding of a Radioligand Standard, Serotonin 5-HT1A (Serotonin 5-HT1A [2]; 10 μM): 91 % inh; Percent Inhibition of Specific Binding of a Radioligand Standard, Serotonin 5-HT2A (Serotonin 5-HT2A [3]; 1 μM): 51 % inh; Percent Inhibition of Specific Binding of a Radioligand Standard, Serotonin 5-HT2A (Serotonin 5-HT2A [3]; 10 μM): 89 % inh; pEC50 (Serotonin 5-HT1A [4]): ~5.30; pEC50 (Serotonin 5-HT2A [5]): < 4.30; pEC50 (Serotonin 5-HT2B): < 4.70; pEC50 (Serotonin 5-HT2C): 5.49; pKi (Sigma-1): 5.08 |
